Data as given in publication PMC10039358, “The 8-bromobaicalein inhibited the replication of dengue, and Zika viruses and targeted the dengue polymerase” (Scientific Reports, 2023).

Key:
HaCat cells = settings: cited from earlier work
in vitro = assay: in vitro
Excerpt: (§1) LLC/MK2 (ATCC® CCL-7), HEK-293 (ATCC® CRL-1573), HepG2 (ATCC® HB-8065), THP-1 (ATCC® TIB-202), Huh-7, RD (ATCC® CCL-136™), and C6/36 (ATCC® CRL-1660) cell lines were propagated and maintained as previously described[16],[21],[40],[53]. Reference DENV1 (16007), DENV2 (NGC, 16681), DENV3 (16562), DENV4 (1036), ZIKV (SV0127/14), and EV-A71 (BRCR) were propagated in Vero, C6/36, and R.D. cells as described[16],[21] Phumee et al.[53]. Cytotoxic concentration (CC50) of LLC/MK2, THP-1, HEK-293, HepG2, Huh-7, and R.D. cells were analyzed as previously described. […] Briefly, cells were seeded overnight and infected with each virus at the multiplicity of infection (M.O.I.) of 0.1 for 1 h. The compound was added during and after infection, and cells were incubated for 72 h. Supernatants were collected for 96-well[55] or a traditional 24-well plaque titration.
(§2) Supplementary Fig. S2. […] Briefly, cells were seeded overnight before the compound addition.

[1] = tested on: dengue, Zika, and Japanese encephalitis viruses; settings: depending the assay and detection systems ref 32, 47, 48; cited from earlier work
DENV4 (1036) = assay: Antiviral efficacy (EC50), plaque titration; assay type: cell-based; settings: for EC50: LLC-MK2, 72 h
Excerpt: as §1

DENV1 (16008) = assay: Antiviral efficacy (EC50), plaque titration; assay type: cell-based; settings: for EC50: LLC-MK2, 72 h
Excerpt: as §1

DENV2 (NGC) = assay: Antiviral efficacy (EC50), plaque titration; assay type: cell-based; settings: for EC50: Dengue virus, DENV2, LLC-MK2, 72 h
Excerpt: as §1

ZIKV (SV0127/14) = assay: Antiviral efficacy (EC50), plaque titration; assay type: cell-based; settings: for EC50: Zika virus, ZIKV (SV0127/14), LLC/MK2 cells, M.O.I. 0.1, 72 h
Excerpt: as §1

DENV3 (16562) = assay: Antiviral efficacy (EC50), plaque titration; assay type: cell-based; settings: for EC50: LLC-MK2, 72 h
Excerpt: as §1

DENV2 NS5/RdRp = biological target: T1, DENV2 NS5/RdRp (Dengue virus type 2, UniProt P29990); assay: In vitro RdRp assay (SYTO-9 fluorescence); assay type: biochemical, DENV-2
T1 construct: The 73.2 kDa of non-tagged NS5/RdRp was successfully purified by size exclusion chromatography; His-tag (N, cleaved yes); made in house
Description: The production of DENV2 RdRp was performed according to a described protocol. In brief, N-terminally Histidine-tagged DENV2 RdRp (NHis-RdRp) was expressed with 200 µM IPTG (isopropyl-b-D-thiogalactopyranoside) induction, at 37 °C for 4 h. Cell disruption and clarification were sequentially done via sonication and centrifugation at 15,000 rpm for 1 h at 4 °C. His-tagged RdRp was purified by immobilized metal affinity chromatography (IMAC) with 175 mM imidazole elution. His-tag was removed by adding 2 units thrombin per 1 mg protein during dialysis for 2 days at 4 °C. The non-tagged RdRp was further purified by size exclusion chromatography. […]
The RdRp assay for inhibition testing was adapted from the previous publications[46],[71]. […] The nascent double-stranded RNA was quantitated by mixing 10 µl of the reaction mixture with 10 µl of 5 µM SYTO-9 dye in Tris–EDTA buffer and incubating at room temperature for 5 min. Fluorescence was measured at excitation and emission wavelengths of 485 nm and 520 nm, respectively, by using EnSight Multimode Plate Reader (Perkin Elmer, Waltham, MA, USA). The IC50 value was calculated from three independent experiments by using PRISM version 9 (GraphPad Software, Inc., La Jolla, CA, USA).

Vero = settings: cited from earlier work
A549 = settings: cited from earlier work
[2] = tested on: chikungunya virus (CHIKV); assay: Antiviral efficacy (EC50) against chikungunya virus; assay type: cell-based; settings: LLC-MK2
[3] = Cytotoxicity (CC50), MTS assay; settings: human
Excerpt: as §1, §2

C57BL/6 mice = assay: Animal toxicity, 7 days intraperitoneal
Description: (A) ALT and (B) Cr levels in infant mice and (C) ALT and (D) Cr levels in adult mice taken at the 8th day after seven consecutive days of 10 mg/kg 8-bromobaicalein, once daily, intraperitoneal administration. Plasma samples were collected for analysis of hepatorenal functions. Each data point represented the ALT or Cr levels of each individual. Error bars indicated the standard deviation of the means.
All methods were carried out in accordance with relevant guidelines and regulations. All experimental protocols were approved by the Institutional Animal Care and Use Committee of the Faculty of Medicine, Chulalongkorn University, Bangkok, Thailand (certificate number: 027/2562), based on the National Institutes of Health, U.S.A.'s criteria for the use and treatment of laboratory animals and by the National University of Singapore (protocol number: R20-0073). All methods are reported in accordance with ARRIVE guidelines (https://arriveguidelines.org) for the reporting of animal experiments. The 8-bromobaicalein was daily administered at 10 mg/kg via intraperitoneal injection for 7 days (n = 6) to determine the drug safety. The control group (n = 6) was injected with the vehicle (5% DMSO, 33.25% polyethylene glycol (PEG.)-400, 1.90% ethanol, and 59.85% distilled water). All mice were weighed daily and monitored for clinical signs using a clinical scoring system. Blood samples were collected via submandibular and cardiac puncture at the 8th day after the first compound administration for alanine transaminase (EnzyChrom, EALT-100, BioAssay, Hayward, CA, USA), and serum creatinine (QuantiChromTM, DICT-500, BioAssay, Hayward, CA, USA) as markers of hepatotoxicity and nephrotoxicity, respectively.

DENV2 NGC = assay: Cell-based time-of-addition study, plaque assay; settings: 2, 5 or 10 µM, added within 12 h after infection, LLC/MK2, harvested 72 h
Description: Figure 5 A scheme and DENV2 titers (pfu/ml) in LLC/MK2 cells of time-of-drug addition study. Briefly, the 2, 5, and 10 µM 8-bromobaicalein was added into DENV2-infected cells (M.O.I. of 0.1) at various time points. All supermatants were harvested at 72 h and quantified by plaque assay. Errors indicated the standard deviation of three biological replicates.
(§3) The protocol was adapted from a previous description. Briefly, LLC/MK2 cells (5 × 10^4) were seeded in a 24-well plate and incubated as described. Cells were infected with DENV2 NGC, unless otherwise indicated, at the M.O.I. of 0.1 before adding the compound at designated concentrations. DMSO at 1% was used as no inhibition control. Supernatants were collected to determined viral titers by plaque titration assay or RT-qPCR.

DENV1-4, and ZIKV = assay: Antiviral efficacy, summary over dengue serotypes and Zika; assay type: cell-based
[4] = Cytotoxicity (CC50), MTS assay; settings: human; remark: listed apart in the source
Excerpt: as §1, §2

[5] = Cytotoxicity (CC50), MTS assay; settings: human; remark: listed apart in the source
Excerpt: as §1, §2

ZIKV = assay: Time-of-addition, viral RNA by RT-qPCR; assay type: cell-based; settings: 10 µM added 1, 6, and 12 h after infection, LLC/MK2, M.O.I. 1
Description: as §3
(§4) Supplementary Fig. S8. The time-of-addition of 8-bromobaicalein against DENV3-, and ZIKV-infected LLC/MK2 cells. Briefly, the 10 µM 8-bromobaicalein was added to the virus-infected cells (M.O.I. of 1) at 1, 6, 12, 24, and 48 h post-infection. Supernatants were collected at 48 h after infection for analysis by RT-qPCR. Results were reported as percent inhibition from DMSO-treated cells.

DENV3 = assay: Time-of-addition, viral RNA by RT-qPCR; assay type: cell-based; settings: 10 µM added 1, 6, and 12 h after infection, LLC/MK2, M.O.I. 1
Description: as §3, §4

[6] = Cytotoxicity (CC50), MTS assay; settings: human; remark: listed apart in the source
Excerpt: as §1, §2

DENV-2 MTase = biological target: T2, DENV-2 MTase (Dengue virus type 2, UniProt P14340); assay: MTase-Glo methyltransferase assay; assay type: biochemical; settings: 100 µM compound
T2 construct: N-terminally Histidine-tagged DENV-2 MTase (NHis-MTase) synthesized according to previous description; His-tag (N)
Description: The production of DENV2 MTase was performed according to a described protocol. In brief, N-terminally Histidine-tagged DENV-2 MTase (NHis-MTase) synthesized according to previous description[30] (GenScript; Piscataway, NJ, USA) was expressed with 100 µM IPTG (isopropyl-b-D-thiogalactopyranoside) induction, at 27 °C for 16 h. Cell disruption and clarification were sequentially done via sonication and centrifugation at 12,000 rpm for 30 min at 4 °C. His-tagged […] was purified by immobilized metal affinity chromatography (IMAC; Cytiva, Marlborough, MA, USA) with 500 mM imidazole elution. The eluate was dialyzed against 2 L of 50 mM Tris, pH 7.5, 50 mM NaCl, 1 mM MgCl2, 40% glycerol, and 1 mM DTT at 4 °C overnight. The purified enzyme was verified by Coomassie staining and methyltransferase activity.
The MTase assay for inhibition testing was adapted from the previous publications. The MTase assay for inhibition testing was performed using MTase-Glo™ Methyltransferase Assay according to the manufacturer’s protocol (Promega, Madison, Wisconsin, USA). Each reaction was performed in 50 µl reaction using the MTase from DENV-2. […] The luminescence was measured using VICTORTM X3 2030 Multilabel Reader (Perkin Elmer, Waltham, MA, USA). The percent enzyme activity was calculated from two independent experiments by using PRISM version 9 (GraphPad Software, La Jolla, CA, USA).

EV-A71 (BRCR) = assay: Antiviral efficacy (EC50), plaque titration; assay type: cell-based
Excerpt: as §1

various cell lines = assay: Cytotoxicities in various cell lines, summary; assay type: cell-based; settings: 100 µM, most cells
Description: as §2

[7] = 8th day after first injection, 10 mg/kg i.p., infant and adult

T2 sequence (P14340 2493-2755): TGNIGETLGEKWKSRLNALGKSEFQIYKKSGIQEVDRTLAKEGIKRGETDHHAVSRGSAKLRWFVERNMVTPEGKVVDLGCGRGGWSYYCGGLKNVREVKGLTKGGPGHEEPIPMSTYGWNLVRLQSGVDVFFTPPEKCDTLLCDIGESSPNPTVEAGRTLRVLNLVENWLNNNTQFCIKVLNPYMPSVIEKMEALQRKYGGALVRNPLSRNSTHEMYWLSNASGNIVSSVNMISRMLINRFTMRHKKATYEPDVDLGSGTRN

O=c1cc(-c2ccccc2)oc2cc(O)c(O)c(O)c12 [baicalein, 5,6,7-trihydroxyflavone]
CC50 (HaCat cells): > 200 µM
CC50 at 48 h (in vitro; rhesus monkey): > 250 µM
EC50 [1]: 0.004 to 24 µM
EC50 (DENV4 (1036)): 930 ± 130 nM
EC50 (DENV1 (16008)): 1400 ± 380 nM
EC50 (DENV2 (NGC)): 4040 ± 1370 nM
EC50 (ZIKV (SV0127/14)): 1580 ± 420 nM
EC50 (DENV3 (16562)): 1190 ± 660 nM
IC50 (DENV2 NS5/RdRp): 242 µM
CC50 (Vero): > 100 µM
CC50 (A549): > 50 µM

O=c1cc(-c2ccccc2)oc2c(Br)c(O)c(O)c(O)c12 [8-bromobaicalein]
EC50 [2]: 490 ± 110 nM
CC50 at 48 h [3]: > 100 µM
Clinical scorings (C57BL/6 mice; 10 mg/kg i.p. once daily, 7 days): within normal range
General health of mice (C57BL/6 mice; 10 mg/kg i.p. once daily, 7 days, infant and adult mice): healthy throughout the experiments
Alanine transaminase (ALT) level, treated vs control (C57BL/6 mice; [7]): insignificantly different
Plasma creatinine (Cr) level, treated vs control (C57BL/6 mice; [7]): insignificantly different
ALT in adult cohort (C57BL/6 mice; adult mice, 10 mg/kg i.p., 7 days): slight ALT increase
Inhibition of virion progeny (DENV2 NGC): 1–2.5 log concentrations (pfu/mL)
Selectivity index (SI) in dengue and Zika viruses (DENV1-4, and ZIKV; LLC/MK2): about 300
EC50 (DENV1-4, and ZIKV; Zika virus, DENV1, read-out: EC50s against DENV1-4 and ZIKV): 660 to 880 nM
CC50 at 48 h [4]: > 100 µM
CC50 at 48 h [5]: 97.9 ± 7.06 µM
CC50 at 48 h (in vitro; human): > 100 µM
CC50 at 48 h (in vitro; rhesus monkey): > 250 µM
Inhibition of ZIKV RNA (ZIKV): inhibited
Inhibition of DENV3 RNA (DENV3): inhibited
CC50 at 48 h [6]: > 100 µM
inhibition at 100 µM (DENV-2 MTase): < 50%
Selectivity index (SI) (DENV4 (1036); DENV4, CC50/EC50 in LLC/MK2): > 312.5
EC50 (DENV4 (1036)): 800 ± 150 nM
EC50 (EV-A71 (BRCR); Enterovirus A, EVA71, EV-A71 (BRCR), table title LLC/MK2 cells, methods R.D. cells): > 25 µM
Inhibition of enterovirus-A71 (EV-A71 (BRCR); nonenveloped enterovirus-A71): did not inhibit
Selectivity index (SI) (DENV1 (16008); DENV1, CC50/EC50 in LLC/MK2): > 378.7879
EC50 (DENV1 (16008)): 660 ± 50 nM
Selectivity index (SI) (DENV2 (NGC); DENV2, CC50/EC50 in LLC/MK2): > 284.0909
EC50 (DENV2 (NGC)): 880 ± 140 nM
Selectivity index (SI) (ZIKV (SV0127/14); ZIKV, CC50/EC50 in LLC/MK2): > 347.2222
EC50 (ZIKV (SV0127/14)): 720 ± 200 nM
Selectivity index (SI) (DENV3 (16562); DENV3, CC50/EC50 in LLC/MK2): > 312.5
EC50 (DENV3 (16562)): 800 ± 80 nM
Cytotoxicity to cells (various cell lines): not toxic
IC50 (DENV2 NS5/RdRp): 34.9 µM
